The test system of data set [1] is MDP-induced TNFα release. As to the kind of experiment: MDP-induced TNFα release in human whole blood. The class given is cell-based. Conditions: inhibition of MDP-induced TNFα release. Here is the method:
(§1) Before treatment with compound or vehicle, THP1 cells, human and rat PBMCs were counted using Vi-Cell cell counter (Invitrogen) and adjusted to a final cell density of […] using complete growth medium. Cells or whole blood were treated with vehicle (0.1% DMSO) or fixed concentrations of compound up to 1 μM in half log unit increments and incubated for the time period indicated in the figure.
(§2) Where the assessment of cytokines was performed, L18-MDP was added to the cell culture media (1 μg/ml) or to the rat blood samples (100 ng/ml) and samples were incubated for up to 4 h. […]
(§3) Cytokine measurement assay: Cytokine levels were measured in rat plasma or rat PBMCs cell culture supernatants using rat V-Plex TNFα, in human plasma or human PBMCs cell culture supernatants with either TNFα tissue culture or 7-plex kit. Rat serum and tissues samples from the in vivo L18-MDP acute inflammation model were analyzed using the rat TNFα, Il-6 and IL-8 U-Plex kits. […] Levels of cytokines spontaneously released from human colon biopsies cell culture supernatants were measured using Human IL-1 beta/IL-1F2 DuoSet ELISA (Bio-techne), Human IL-6 ELISA (Immunotools) and Human TNF-alpha DuoSet ELISA (Bio-techne). […] The MSD plates were analyzed using the MSD sector imager 6000 plate reader and cytokines concentration (pg/ml) was obtained by using the MSD DISCOVERY WORKBENCH software version 4.0.12.1 […]

A short description of data set [2]: ChromLogD7.4 high-throughput chromatographic lipophilicity. Format: physicochemical.
Data set [3] deals with L18-MDP-stimulated TNFα release. The data set is described as follows: L18-MDP-stimulated TNFα release in rat whole blood. Format: cell-based. The following applies: inhibition of L18-MDP-stimulated TNFα release. Here is the method: as §1, §2, §3
Data set [4] can be described thus: High-throughput precipitation solubility, chemiluminescent nitrogen-specific detection (CLND). Format: physicochemical. The following applies: high-throughput.
For data set [5], the system named is spontaneous IL-1β, IL-6, and TNFα release. The data set is described as follows: Spontaneous cytokine release (IL-1β, IL-6, TNFα) from Crohn's disease patient intestinal biopsies. The class given is cell-based, human. Conditions: for IL-1b (Ctrl=DMSO = 100) / IL-6 (Ctrl=DMSO = 100) / TNFa (Ctrl=DMSO = 100): individual biopsies, fig 4e. Here is the method: Colonic biopsies or tissues were obtained during endoscopy or via surgical resection from Crohn’s Disease (CD) or Ulcerative Colitis (UC) patients (St Bartholomew’s Hospital, London). All patients gave informed written consent. For surgical specimens, the mucosa was dissected away from the submucosa and cut into pieces of ~10–20 mg. […] The supernatants were collected for cytokine measurement as detailed in cytokines assay section while tissues were used to determine RIPK2 levels.
Cytokine measurement assay: Cytokine levels were measured in rat plasma or rat PBMCs cell culture supernatants using rat V-Plex TNFα, in human plasma or human PBMCs cell culture supernatants with either TNFα tissue culture or 7-plex kit. Rat serum and tissues samples from the in vivo L18-MDP acute inflammation model were analyzed using the rat TNFα, Il-6 and IL-8 U-Plex kits. All kits provided by Meso Scale Discovery (MSD). Levels of cytokines spontaneously released from human colon biopsies cell culture supernatants were measured using Human IL-1 beta/IL-1F2 DuoSet ELISA (Bio-techne), Human IL-6 ELISA (Immunotools) and Human TNF-alpha DuoSet ELISA (Bio-techne). All samples were processed accordingly to the manufacturer’s instructions. The MSD plates were analyzed using the MSD sector imager 6000 plate reader and cytokines concentration (pg/ml) was obtained by using the MSD DISCOVERY WORKBENCH software version 4.0.12.1

Data set [6] addresses T1, cIAP1 (Homo sapiens, UniProt Q13490).
T1 construct: endogenous in cells; host or cells: primary human PBMCs
The class given is cell-based. The following applies: human PBMCs, 24 h, 1uM. As for the experimental part: Where the assessment of cytokines was performed, L18-MDP was added to the cell culture media (1 μg/ml) or to the rat blood samples (100 ng/ml) and samples were incubated for up to 4 h. […] Samples were them spun down at 1000 g and the cell culture supernatant, plasma or serum were collected for cytokines assessment, while cell pellets were used for RIPK2 and/or cIAP1, cIAP2, and XIAP levels analysis via immunoblotting.
Simple Western immunoassay: Cell lysates were mixed with 5× concentrated master mix (Protein Simple) and denatured at 95 °C on a heat block for 5 min together with the provided ladder (Protein Simple). Antibodies were diluted in the provided buffer as following: anti-RIPK2 (1:10 or 1:50), anti-cIAP1(1:10), anti-cIAP2 (1:10), anti-XIAP (1:10), mouse anti-β-actin (Abcam - 1:1000), rabbit anti-β-actin (Abcam - 1:50) and anti-vinculin (1:100). All reagents (blocking buffer, primary and secondary antibodies, streptavadin, luminol/peroxide, separation matrix, stacking matrix and water) were added to the Protein Simple plate containing the ladder and lysates and the plate was placed in a Protein Simple Western instrument and the Simple Western default size assay protocol was used. […] The area under the peak values obtained for RIPK2, cIAP1, cIAP2 or XIAP were normalized relative to the control protein values.

The results in this text go back to paper PMC7083851, “Extended pharmacodynamic responses observed upon PROTAC-mediated degradation of RIPK2” (Communications Biology, 2020).

“And” between values parts separate entries of the source, which are not always exact repeats. Identical values can stand only once. Some results are limits rather than exact numbers.

The solubility is the dissolved amount per volume that the medium holds. In general, IC50 refers to the concentration at which inhibition is half-maximal.

T1 sequence (Q13490 whole entry): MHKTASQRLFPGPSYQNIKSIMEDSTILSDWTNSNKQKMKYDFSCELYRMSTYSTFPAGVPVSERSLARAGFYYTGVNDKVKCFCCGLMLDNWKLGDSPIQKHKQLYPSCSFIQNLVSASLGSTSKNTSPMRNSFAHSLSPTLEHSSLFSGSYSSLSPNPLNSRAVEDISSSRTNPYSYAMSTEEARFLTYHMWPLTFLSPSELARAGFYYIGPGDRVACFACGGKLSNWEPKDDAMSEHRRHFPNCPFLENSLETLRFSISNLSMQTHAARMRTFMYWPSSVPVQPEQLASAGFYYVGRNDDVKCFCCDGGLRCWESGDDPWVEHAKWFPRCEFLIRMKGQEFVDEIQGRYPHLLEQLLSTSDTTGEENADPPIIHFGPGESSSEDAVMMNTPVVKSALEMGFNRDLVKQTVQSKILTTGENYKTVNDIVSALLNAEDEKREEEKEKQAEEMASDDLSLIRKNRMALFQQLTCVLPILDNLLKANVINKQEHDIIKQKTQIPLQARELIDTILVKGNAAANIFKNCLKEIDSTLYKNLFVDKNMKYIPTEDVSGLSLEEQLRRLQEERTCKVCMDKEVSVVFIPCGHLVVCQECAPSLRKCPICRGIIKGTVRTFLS

On to `CN[C@@H](C)C(=O)N[C@H](C(=O)N1CCC[C@H]1c1nc(C(=O)c2ccc(F)cc2)cs1)C1CCN(C(=O)c2cnc(N3CCN(CCOc4cc5ncnc(Nc6n[nH]c(C)c6C)c5cc4S(=O)(=O)C(C)(C)C)CC3)nc2)CC1` [PROTAC 4], for which the “hWB MDP pIC50 ± SEM (n)” value in data set [1] is listed as 7.7 ± 0.05 (4). The ChromLogD7.4 in data set [2] is given as 4.2. In data set [3], the “rWB MDP pIC50 ± SEM (n)” value is recorded as 7.7 ± 0.16 (4). Further, in data set [4], the solubility is over 311 µM.

As for `CN[C@@H](C)C(=O)N[C@H](C(=O)N1C[C@@H](NC(=O)c2cnc(N3CCN(CCCOc4cc5ncnc(Nc6n[nH]c(C)c6C)c5cc4S(=O)(=O)C(C)(C)C)CC3)cn2)C[C@H]1C(=O)Nc1c(F)cccc1F)C(C)(C)C` [PROTAC 6], the IC50 in data set [5] (Homo sapiens, 24 h, read-out: IC50 inhibition of spontaneous cytokine release) was in the range of 1 to 3 nM. The “IL-1b (Ctrl=DMSO = 100)” value is 94 and 86 and 97 in data set [5] (compound concentration 0.05 nM); 59 and 61 and 39 and 57 in data set [5] (compound concentration 0.5 nM); 50 and 72 and 71 and 12 and 58 and 31 and 5 and 56 and 44 and 41 (2×) and 49 and 74 and 81 in data set [5] (compound concentration 5 nM); 12 (2×) and 26 and 66 and 31 and 32 and 4 and 29 and 9 and 18 and 69 and 5 and 52 and 14 in data set [5] (compound concentration 50 nM). For the same compound, the “IL-6 (Ctrl=DMSO = 100)” value in data set [5] (compound concentration 0.05 nM) is 105 and 101 and 86; in data set [5] (compound concentration 0.5 nM) it was 98 and 80 and 79 and 97 and 84 and 33; in data set [5] (compound concentration 5 nM), 56 and 35 and 85 (2×) and 14 (2×) and 49 and 48 and 89 and 101 and 72 and 66 and 70 and 53; in data set [5] (compound concentration 50 nM), 35 and 29 and 12 (2×) and 31 (2×) and 16 (2×) and 75 and 44 and 24 and 50 and 63 and 23 and 57. For the same compound, the “TNFa (Ctrl=DMSO = 100)” value was 90 and 96 in data set [5] (compound concentration 0.05 nM); 87 (2×) and 88 and 52 in data set [5] (compound concentration 0.5 nM); 38 and 23 and 69 (2×) and 35 (2×) and 42 and 24 and 87 and 58 and 34 and 11 and 66 and 31 and 41 in data set [5] (compound concentration 5 nM); 42 and 16 and 50 (2×) and 37 (2×) and 0 and 30 (2×) and 24 and 78 and 25 and 60 and 34 and 59 in data set [5] (compound concentration 50 nM). Also, in data set [6], the “reduction in cIAP1 levels” value was ~ 25%.
